Experimental data as given in paper PMC5218480 (PLoS ONE, 2017).

System: MV-4-11 cells
Assay: Gene expression microarray analysis (Affymetrix PrimeView) and GSEA
Assay type: cell-based, human
Parameters: RFU PODN (11730768_x_at) / Fold change /veh PODN (11730768_x_at) / RFU LINC00158 (11744669_a_at) / Fold change /veh LINC00158 (11744669_a_at) / RFU DUSP10 (11751237_a_at) / Fold change /veh DUSP10 (11751237_a_at) / RFU ID3 (11757404_x_at) / Fold change /veh ID3 (11757404_x_at) / RFU PLEKHG5 (11737974_s_at) / Fold change /veh PLEKHG5 (11737974_s_at) / RFU LRRC4B (11730491_at) / Fold change /veh LRRC4B (11730491_at) / RFU GIMAP4 (11747438_a_at) / Fold change /veh GIMAP4 (11747438_a_at) / RFU KRT8 (11758183_x_at) / Fold change /veh KRT8 (11758183_x_at) / RFU CNN1 (11734310_a_at) / Fold change /veh CNN1 (11734310_a_at) / RFU VPS37D (11726825_at) / Fold change /veh VPS37D (11726825_at) / RFU C10orf10 (11716522_x_at) / Fold change /veh C10orf10 (11716522_x_at) / RFU KIR2DL2 /// KIR2DL4 /// KIR2DL5A /// KIR2DL5B /// KIR2DS1 /// KIR2DS2 /// KIR2DS3 /// KIR2DS4 /// KIR3DL3 /// KIR3DL3 /// KIR3DS1 (11738374_at) / Fold change /veh KIR2DL2 /// KIR2DL4 /// KIR2DL5A /// KIR2DL5B /// KIR2DS1 /// KIR2DS2 /// KIR2DS3 /// KIR2DS4 /// KIR3DL3 /// KIR3DL3 /// KIR3DS1 (11738374_at) / RFU C1QL1 (11718748_at) / Fold change /veh C1QL1 (11718748_at) / RFU TMPRSS4 (11747572_a_at) / Fold change /veh TMPRSS4 (11747572_a_at) / RFU HAMP (11756126_x_at) / Fold change /veh HAMP (11756126_x_at) / RFU RNFT2 (11725882_a_at) / Fold change /veh RNFT2 (11725882_a_at) / RFU NR4A2 (11747474_a_at) / Fold change /veh NR4A2 (11747474_a_at) / RFU ABCC12 (11746883_a_at) / Fold change /veh ABCC12 (11746883_a_at) / RFU TMEM136 (11760407_x_at) / Fold change /veh TMEM136 (11760407_x_at) / RFU CLDN22 /// WWC2 (11732394_at) / Fold change /veh CLDN22 /// WWC2 (11732394_at) / RFU HLA-DPB1 (11760878_x_at) / Fold change /veh HLA-DPB1 (11760878_x_at) / RFU SPINT1 (11716480_a_at) / Fold change /veh SPINT1 (11716480_a_at) / RFU GAP43 (11754022_s_at) / Fold change /veh GAP43 (11754022_s_at) / RFU A4GNT (11735810_at) / Fold change /veh A4GNT (11735810_at) / RFU PRB3 (11715151_x_at) / Fold change /veh PRB3 (11715151_x_at) / RFU TUBB4B (11761932_at) / Fold change /veh TUBB4B (11761932_at) / RFU CAPN14 (11732068_a_at) / Fold change /veh CAPN14 (11732068_a_at) / RFU TMCC2 (11721928_a_at) / Fold change /veh TMCC2 (11721928_a_at) / RFU IRGQ (11745062_a_at) / Fold change /veh IRGQ (11745062_a_at) / RFU FAM174B (11720279_a_at) / Fold change /veh FAM174B (11720279_a_at) / RFU TMPRSS4 (11748680_a_at) / Fold change /veh TMPRSS4 (11748680_a_at) / RFU FAM212B (11763350_a_at) / Fold change /veh FAM212B (11763350_a_at) / RFU PLEKHG5 (11743358_a_at) / Fold change /veh PLEKHG5 (11743358_a_at) / RFU ZSCAN30 (11745921_a_at) / Fold change /veh ZSCAN30 (11745921_a_at) / RFU CMKLR1 (11741424_a_at) / Fold change /veh CMKLR1 (11741424_a_at) / RFU LOC101060620 /// MAPK8IP1 (11723275_at) / Fold change /veh LOC101060620 /// MAPK8IP1 (11723275_at) / RFU SPTSSB (11747773_x_at) / Fold change /veh SPTSSB (11747773_x_at) / RFU PRSS12 (11739890_at) / Fold change /veh PRSS12 (11739890_at) / RFU BIN1 (11741810_x_at) / Fold change /veh BIN1 (11741810_x_at) / RFU WNT11 (11732464_a_at) / Fold change /veh WNT11 (11732464_a_at) / RFU C10orf10 (11716521_a_at) / Fold change /veh C10orf10 (11716521_a_at) / RFU C5orf56 (11738089_at) / Fold change /veh C5orf56 (11738089_at) / RFU CYB561 (11721691_x_at) / Fold change /veh CYB561 (11721691_x_at) / RFU ANKRD19P (11752326_a_at) / Fold change /veh ANKRD19P (11752326_a_at) / RFU OR2T12 /// OR2T33 /// OR2T8 (11738714_s_at) / Fold change /veh OR2T12 /// OR2T33 /// OR2T8 (11738714_s_at) / RFU VCAN (11748164_a_at) / Fold change /veh VCAN (11748164_a_at) / RFU JSRP1 (11732532_at) / Fold change /veh JSRP1 (11732532_at) / RFU KRTAP10-11 (11738290_x_at) / Fold change /veh KRTAP10-11 (11738290_x_at) / RFU MYO3A (11730013_a_at) / Fold change /veh MYO3A (11730013_a_at) / RFU EBF3 (11725865_a_at) / Fold change /veh EBF3 (11725865_a_at) / RFU CAMK2N1 (11719241_x_at) / Fold change /veh CAMK2N1 (11719241_x_at) / RFU C5orf56 (11738088_a_at) / Fold change /veh C5orf56 (11738088_a_at) / RFU OLFML3 (11715873_a_at) / Fold change /veh OLFML3 (11715873_a_at) / RFU LOC100653217 /// NTM (11731650_a_at) / Fold change /veh LOC100653217 /// NTM (11731650_a_at) / RFU MAPK11 (11762145_a_at) / Fold change /veh MAPK11 (11762145_a_at) / RFU FIZ1 (11724087_x_at) / Fold change /veh FIZ1 (11724087_x_at) / RFU OASL (11726364_x_at) / Fold change /veh OASL (11726364_x_at) / RFU SOX15 (11748057_x_at) / Fold change /veh SOX15 (11748057_x_at) / RFU CD79A (11719716_a_at) / Fold change /veh CD79A (11719716_a_at) / RFU HIST1H1D (11736915_at) / Fold change /veh HIST1H1D (11736915_at) / RFU CASKIN2 (11723855_a_at) / Fold change /veh CASKIN2 (11723855_a_at) / RFU LOC730098 (11760151_x_at) / Fold change /veh LOC730098 (11760151_x_at) / RFU OR4N2 (11742367_at) / Fold change /veh OR4N2 (11742367_at) / RFU PRRT2 (11749266_a_at) / Fold change /veh PRRT2 (11749266_a_at) / RFU SNX32 (11753110_a_at) / Fold change /veh SNX32 (11753110_a_at) / RFU CDHR5 (11726645_a_at) / Fold change /veh CDHR5 (11726645_a_at) / RFU RCAN1 (11760418_a_at) / Fold change /veh RCAN1 (11760418_a_at) / RFU FAM167A (11723789_a_at) / Fold change /veh FAM167A (11723789_a_at) / RFU FAM26E (11764081_at) / Fold change /veh FAM26E (11764081_at) / RFU ISYNA1 (11749810_s_at) / Fold change /veh ISYNA1 (11749810_s_at) / RFU ACY1 (11761880_at) / Fold change /veh ACY1 (11761880_at) / RFU 11764098_at / Fold change /veh 11764098_at / RFU SAMD14 (11745864_x_at) / Fold change /veh SAMD14 (11745864_x_at) / RFU NPB (11741838_a_at) / Fold change /veh NPB (11741838_a_at) / RFU TMPRSS6 (11731388_a_at) / Fold change /veh TMPRSS6 (11731388_a_at) / RFU KRTAP10-2 (11738614_at) / Fold change /veh KRTAP10-2 (11738614_at) / RFU ARHGAP8 /// PRR5-ARHGAP8 (11727945_x_at) / Fold change /veh ARHGAP8 /// PRR5-ARHGAP8 (11727945_x_at) / RFU KRTAP5-7 /// NADSYN1 (11734609_at) / Fold change /veh KRTAP5-7 /// NADSYN1 (11734609_at) / RFU RASL12 (11751679_a_at) / Fold change /veh RASL12 (11751679_a_at) / RFU CDKN2B (11736163_a_at) / Fold change /veh CDKN2B (11736163_a_at) / RFU PRF1 (11729649_at) / Fold change /veh PRF1 (11729649_at) / RFU, ZNF638 /// ZNF638-IT1 / Fold change vs veh, ZNF638 /// ZNF638-IT1 / RFU, PANK3 / Fold change vs veh, PANK3 / RFU, SH3YL1 / Fold change vs veh, SH3YL1 / RFU, ZEB2 / Fold change vs veh, ZEB2 / RFU, NRIP1 / Fold change vs veh, NRIP1 / RFU, PTTG1IP / Fold change vs veh, PTTG1IP / RFU, CAPN2 / Fold change vs veh, CAPN2 / RFU, MED14 / Fold change vs veh, MED14 / RFU, SNORA58 / Fold change vs veh, SNORA58 / RFU, C1orf63 / Fold change vs veh, C1orf63 / RFU, LRRFIP1 / Fold change vs veh, LRRFIP1 / RFU, NDUFAF7 / Fold change vs veh, NDUFAF7 / RFU, SLC12A2 / Fold change vs veh, SLC12A2 / RFU, IBTK / Fold change vs veh, IBTK / RFU, ESF1 / Fold change vs veh, ESF1 / Fold change vs veh, TMEM50B / RFU, TAOK1 / Fold change vs veh, TAOK1 / RFU, ACBD3 / Fold change vs veh, ACBD3 / RFU, TMA16 / Fold change vs veh, TMA16 / RFU, RWDD3 / Fold change vs veh, RWDD3 / RFU, BCAT1 / Fold change vs veh, BCAT1 / RFU, EDEM3 / Fold change vs veh, EDEM3 / RFU, TMEM33 / Fold change vs veh, TMEM33 / RFU, WDR75 / Fold change vs veh, WDR75 / RFU, AHCTF1 / Fold change vs veh, AHCTF1 / RFU, TFRC / Fold change vs veh, TFRC / RFU, ZDHHC17 / Fold change vs veh, ZDHHC17 / RFU, NOM1 / Fold change vs veh, NOM1 / RFU, ARL8B / Fold change vs veh, ARL8B / RFU, ZBTB11 / Fold change vs veh, ZBTB11 / RFU, TAMM41 / Fold change vs veh, TAMM41 / RFU, KIAA1704 /// LOC100996395 / Fold change vs veh, KIAA1704 /// LOC100996395 / RFU, ING1 / Fold change vs veh, ING1 / RFU, TRMT61B / Fold change vs veh, TRMT61B / RFU, FUBP3 / Fold change vs veh, FUBP3 / RFU, TP53 / Fold change vs veh, TP53 / RFU, TNKS2 / Fold change vs veh, TNKS2 / RFU, ZFP14 / Fold change vs veh, ZFP14 / RFU, ACTR2 / Fold change vs veh, ACTR2 / RFU, PPP3R1 / Fold change vs veh, PPP3R1 / RFU, PIK3R1 / Fold change vs veh, PIK3R1 / RFU, HNRNPA1 / Fold change vs veh, HNRNPA1 / RFU, RNF170 / Fold change vs veh, RNF170 / RFU, ZNF28 / Fold change vs veh, ZNF28 / RFU, RNGTT / Fold change vs veh, RNGTT / RFU, OGT / Fold change vs veh, OGT / RFU, BRD1 / Fold change vs veh, BRD1 / RFU, MARS / Fold change vs veh, MARS / RFU, ZNF655 / Fold change vs veh, ZNF655 / RFU, FAHD1 / Fold change vs veh, FAHD1 / RFU, BDP1 / Fold change vs veh, BDP1 / RFU, LRRCC1 / Fold change vs veh, LRRCC1 / RFU, ARID1A / Fold change vs veh, ARID1A / RFU, ZNF146 / Fold change vs veh, ZNF146 / RFU, ZNF330 / Fold change vs veh, ZNF330 / RFU, GPN3 / Fold change vs veh, GPN3 / RFU, C9orf123 / Fold change vs veh, C9orf123 / RFU, N4BP2L2 / Fold change vs veh, N4BP2L2 / RFU, ARFIP1 / Fold change vs veh, ARFIP1 / RFU, FAM179B / Fold change vs veh, FAM179B / RFU, BCL10 / Fold change vs veh, BCL10 / RFU, UHRF1BP1L / Fold change vs veh, UHRF1BP1L / RFU, BET1 / Fold change vs veh, BET1 / RFU, CNOT2 / Fold change vs veh, CNOT2 / RFU, ZNF268 / Fold change vs veh, ZNF268 / Fold change vs veh, ZNF507 / RFU, DGCR2 / Fold change vs veh, DGCR2 / RFU, WDSUB1 / Fold change vs veh, WDSUB1 / Fold change vs veh, HSP90B1 /// MIR3652 / RFU, ADSS / Fold change vs veh, ADSS / RFU, GK / Fold change vs veh, GK / RFU, ZNF148 / Fold change vs veh, ZNF148 / RFU, TAF9 / Fold change vs veh, TAF9 / RFU, SLC1A5 / Fold change vs veh, SLC1A5 / RFU, SLMO2 / Fold change vs veh, SLMO2 / RFU, ABCC4 / Fold change vs veh, ABCC4 / RFU, LOC101060439 /// RAP1B / Fold change vs veh, LOC101060439 /// RAP1B / RFU, RFX7 / Fold change vs veh, RFX7 / RFU, GTPBP10 / Fold change vs veh, GTPBP10 / RFU, CNEP1R1 / Fold change vs veh, CNEP1R1 / RFU, BIVM-ERCC5 /// ERCC5 / Fold change vs veh, BIVM-ERCC5 /// ERCC5 / RFU, ILF3 / Fold change vs veh, ILF3 / RFU 11762660_at / Fold change /veh 11762660_at / RFU VCAN (11757783_s_at) / Fold change /veh VCAN (11757783_s_at) / RFU DDX43 (11728927_at) / Fold change /veh DDX43 (11728927_at) / RFU KRT8 (11758188_x_at) / Fold change /veh KRT8 (11758188_x_at) / RFU NKD1 (11759106_at) / Fold change /veh NKD1 (11759106_at) / RFU SRD5A1 (11742802_a_at) / Fold change /veh SRD5A1 (11742802_a_at) / RFU TPSAB1 /// TPSB2 (11721975_s_at) / Fold change /veh TPSAB1 /// TPSB2 (11721975_s_at) / RFU GSTM3 (11746129_a_at) / Fold change /veh GSTM3 (11746129_a_at) / RFU IL23R (11737362_x_at) / Fold change /veh IL23R (11737362_x_at) / RFU TMEM51 (11727254_a_at) / Fold change /veh TMEM51 (11727254_a_at) / RFU PIWIL2 (11732686_x_at) / Fold change /veh PIWIL2 (11732686_x_at) / RFU ORM1 (11744905_x_at) / Fold change /veh ORM1 (11744905_x_at) / RFU CCDC152 (11743942_at) / Fold change /veh CCDC152 (11743942_at) / RFU ECM1 (11717891_a_at) / Fold change /veh ECM1 (11717891_a_at) / RFU IL23R (11748794_a_at) / Fold change /veh IL23R (11748794_a_at) / RFU TNFAIP8L3 (11732012_x_at) / Fold change /veh TNFAIP8L3 (11732012_x_at) / RFU MBOAT4 (11741988_at) / Fold change /veh MBOAT4 (11741988_at) / RFU 11764193_at / Fold change /veh 11764193_at / RFU TMEM53 (11763286_at) / Fold change /veh TMEM53 (11763286_at) / RFU MAGEB2 (11727129_at) / Fold change /veh MAGEB2 (11727129_at) / RFU TMEM200A (11744735_a_at) / Fold change /veh TMEM200A (11744735_a_at) / RFU CCDC152 (11751479_a_at) / Fold change /veh CCDC152 (11751479_a_at) / RFU FAM211A (11726209_a_at) / Fold change /veh FAM211A (11726209_a_at) / RFU RGS16 (11746705_a_at) / Fold change /veh RGS16 (11746705_a_at) / RFU VCAN (11755009_s_at) / Fold change /veh VCAN (11755009_s_at) / RFU RHOB (11743442_s_at) / Fold change /veh RHOB (11743442_s_at) / RFU RGS16 (11720943_a_at) / Fold change /veh RGS16 (11720943_a_at) / RFU RGS16 (11720944_at) / Fold change /veh RGS16 (11720944_at) / RFU, VPS4B / Fold change vs veh, VPS4B / RFU, CREB1 / Fold change vs veh, CREB1 / RFU, DNAJC13 / Fold change vs veh, DNAJC13 / RFU, GNAQ / Fold change vs veh, GNAQ / RFU, CDK5R1 / Fold change vs veh, CDK5R1 / RFU, ZRANB3 / Fold change vs veh, ZRANB3 / RFU, CUL4A / Fold change vs veh, CUL4A / RFU, CCNY / Fold change vs veh, CCNY / RFU, UFL1 / Fold change vs veh, UFL1 / RFU, COG3 / Fold change vs veh, COG3 / RFU, DIAPH2 / Fold change vs veh, DIAPH2 / RFU, SKA2 / Fold change vs veh, SKA2 / RFU, AFF3 / Fold change vs veh, AFF3 / RFU, LMF1 / Fold change vs veh, LMF1 / RFU, IPO11 / Fold change vs veh, IPO11 / RFU, DFFB / Fold change vs veh, DFFB / RFU, FOXP1 / Fold change vs veh, FOXP1 / RFU, CARD8 / Fold change vs veh, CARD8 / RFU, STRN3 / Fold change vs veh, STRN3 / RFU, ADK / Fold change vs veh, ADK / RFU, RASSF2 / Fold change vs veh, RASSF2 / RFU, WIPF1 / Fold change vs veh, WIPF1 / RFU, LARP1B / Fold change vs veh, LARP1B / RFU, RASA1 / Fold change vs veh, RASA1 / RFU, RB1 / Fold change vs veh, RB1 / RFU, PPFIA1 / Fold change vs veh, PPFIA1 / RFU, MAT2A / Fold change vs veh, MAT2A / RFU, CCT5 / Fold change vs veh, CCT5 / RFU, WDR92 / Fold change vs veh, WDR92 / RFU, CUX1 / Fold change vs veh, CUX1 / RFU, TTC7A / Fold change vs veh, TTC7A / RFU, TMEM135 / Fold change vs veh, TMEM135 / RFU, DEPTOR / Fold change vs veh, DEPTOR / RFU, CPM / Fold change vs veh, CPM / RFU, DNAJB6 / Fold change vs veh, DNAJB6 / RFU, CACNA2D3 / Fold change vs veh, CACNA2D3 / RFU, DTX4 / Fold change vs veh, DTX4 / RFU, TFCP2 / Fold change vs veh, TFCP2 / RFU, GMCL1 /// GMCL1P1 / Fold change vs veh, GMCL1 /// GMCL1P1 / RFU, AEBP2 / Fold change vs veh, AEBP2 / RFU, SNHG1 /// SNORD22 /// SNORD25 /// SNORD26 /// SNORD27 /// SNORD28 /// SNORD29 /// SNORD31 / Fold change vs veh, SNHG1 /// SNORD22 /// SNORD25 /// SNORD26 /// SNORD27 /// SNORD28 /// SNORD29 /// SNORD31 / Fold change (Aza/veh), C12orf56 (ProbeSet 11735607_a_at) / Fold change (ACY-1035/veh), C12orf56 (ProbeSet 11735607_a_at) / Fold change (Aza/veh), FGFR1OP (ProbeSet 11751329_s_at) / Fold change (ACY-1035/veh), FGFR1OP (ProbeSet 11751329_s_at) / Fold change (Aza/veh), VPS36 (ProbeSet 11739960_a_at) / Fold change (ACY-1035/veh), VPS36 (ProbeSet 11739960_a_at) / RFU SYPL1 (11715823_x_at) / Fold change /veh SYPL1 (11715823_x_at) / RFU IGFBP7 (11715501_s_at) / Fold change /veh IGFBP7 (11715501_s_at) / RFU REEP3 (11722064_at) / Fold change /veh REEP3 (11722064_at) / RFU IGLL1 (11728026_x_at) / Fold change /veh IGLL1 (11728026_x_at): dose or concentration left out as unconfirmed
Conditions: ProbeSet 11740781_a_at; LIST B

**Q.** Which “Fold change vs veh, ILF3” value does the source give for `Nc1ncn([C@@H]2O[C@H](CO)[C@@H](O)[C@H]2O)c(=O)n1` [azacitidine] here?
**A.** The value was 0.96.
